In PubChem BioAssay AID248 (DTP/NCI, 2004):
Several values for one entry are separate records, joined by “and”; a condition that tells them apart may be missing. Identical values can stand only once. Inconclusive results and toxic doses are left out. Rule as the data show it: active = T/C of 150% or more; inactive = T/C below 125%.

Test system: L1210 leukemia ip in BDF1 mice, survival T/C
Assay: NCI In Vivo Anticancer Drug Screen. Data for tumor model L1210 Leukemia (intraperitoneal) in B6D2F1 (BDF1) mice
Settings: endpoint: mean survival time, higher = longer survival
Summary of the method: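 Read-out is survival time, reported as the treated-group measurement over the vehicle-control measurement.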

[1] = dose: 100.0 mg/kg/injection, schedule: Q01DX001 (ip), vehicle: carboxymethylcellulose (CMC)
[2] = dose: 100.0 mg/kg/injection, schedule: Q04DX003 (ip), vehicle: carboxymethylcellulose (CMC)
[3] = dose: 200.0 mg/kg/injection, schedule: Q01DX001 (ip), vehicle: carboxymethylcellulose (CMC)
[4] = dose: 200.0 mg/kg/injection, schedule: Q04DX003 (ip), vehicle: carboxymethylcellulose (CMC)
[5] = dose: 400.0 mg/kg/injection, schedule: Q01DX001 (ip), vehicle: carboxymethylcellulose (CMC)
[6] = dose: 100.0 mg/kg/injection, schedule: Q04DX003 (ip), vehicle: saline with Tween-80
[7] = dose: 200.0 mg/kg/injection, schedule: Q04DX003 (ip), vehicle: saline with Tween-80
[8] = dose: 400.0 mg/kg/injection, schedule: Q04DX003 (ip), vehicle: saline with Tween-80
[9] = dose: 100.0 mg/kg/injection, schedule: Q04DX003 (ip), vehicle: saline
[10] = dose: 100.0 mg/kg/injection, schedule: Q01DX009 (ip), vehicle: saline
[11] = dose: 200.0 mg/kg/injection, schedule: Q01DX009 (ip), vehicle: saline
[12] = dose: 400.0 mg/kg/injection, schedule: Q01DX009 (ip), vehicle: saline
[13] = dose: 25.0 mg/kg/injection, schedule: Q01DX001 (ip), vehicle: carboxymethylcellulose (CMC)
[14] = dose: 200.0 mg/kg/injection, schedule: Q04DX003 (ip), vehicle: saline
[15] = dose: 400.0 mg/kg/injection, schedule: Q04DX003 (ip), vehicle: saline

Measured: T/C

CNC(=O)NC1CCCCC1
inactive: [1] 106 % of control | dose: 100.0 mg/kg/injection, schedule: Q01DX009 (ip), vehicle: carboxymethylcellulose (CMC) 92 % of control and 98 % of control | dose: 100.0 mg/kg/injection, schedule: Q04DX002 (ip), vehicle: carboxymethylcellulose (CMC) 97 % of control | [2] 100 % of control | [3] 103 % of control | dose: 200.0 mg/kg/injection, schedule: Q01DX009 (ip), vehicle: carboxymethylcellulose (CMC) 95 % of control and 96 % of control | dose: 200.0 mg/kg/injection, schedule: Q04DX002 (ip), vehicle: carboxymethylcellulose (CMC) 89 % of control | [4] 97 % of control | [5] 106 % of control | dose: 400.0 mg/kg/injection, schedule: Q01DX009 (ip), vehicle: carboxymethylcellulose (CMC) 101 % of control | dose: 400.0 mg/kg/injection, schedule: Q04DX002 (ip), vehicle: carboxymethylcellulose (CMC) 100 % of control | dose: 400.0 mg/kg/injection, schedule: Q04DX003 (ip), vehicle: carboxymethylcellulose (CMC) 100 % of control

CC1(C)CC(=O)C(C)(CCc2ccccc2)C(=O)C1
inactive: [6] 97 % of control | [7] 98 % of control | [8] 95 % of control

CN(C)N=Nc1ccc(C(=O)N/N=C/c2ccccc2)cc1
inactive: dose: 75.0 mg/kg/injection, schedule: Q04DX003 (ip), vehicle: Klucel (hydroxypropylcellulose) (HPC) 99 % of control | dose: 150.0 mg/kg/injection, schedule: Q04DX003 (ip), vehicle: Klucel (hydroxypropylcellulose) (HPC) 97 % of control | dose: 300.0 mg/kg/injection, schedule: Q04DX003 (ip), vehicle: Klucel (hydroxypropylcellulose) (HPC) 100 % of control

CCN1CCC2CN(C(=O)Nc3ccccc3)CCN2C1=O (centres undefined)
inactive: [6] 98 % of control | [7] 90 % of control | [8] 87 % of control

CCCCOP(=O)(OCCCC)O/C(C)=C(\C)OP(=O)(OCC)OCC
inactive: dose: 25.0 mg/kg/injection, schedule: Q04DX002 (ip), vehicle: saline 97 % of control and 102 % of control | dose: 25.0 mg/kg/injection, schedule: Q04DX003 (ip), vehicle: saline 102 % of control | dose: 50.0 mg/kg/injection, schedule: Q04DX002 (ip), vehicle: saline 95 % of control and 97 % of control | dose: 50.0 mg/kg/injection, schedule: Q04DX003 (ip), vehicle: saline 108 % of control | [9] 108 % of control | dose: 200.0 mg/kg/injection, schedule: Q04DX002 (ip), vehicle: saline 97 % of control

COP1(=O)OCC2OC(n3cnc4c(N)ncnc43)C(O)C2O1 (centres undefined)
inactive: dose: 100.0 mg/kg/injection, schedule: Q01DX005 (ip), vehicle: saline 95 % of control and 103 % of control | [10] 89 % of control | dose: 200.0 mg/kg/injection, schedule: Q01DX005 (ip), vehicle: saline 89 % of control and 92 % of control | [11] 92 % of control | dose: 400.0 mg/kg/injection, schedule: Q01DX005 (ip), vehicle: saline 92 % of control | [12] 98 % of control | dose: 600.0 mg/kg/injection, schedule: Q01DX005 (ip), vehicle: saline 101 % of control

CCCCCCCNC1=C(c2ccccc2)C(=O)C(NCCCCCCC)=C(c2ccccc2)C1=O
inactive: [1] 94 % of control | [3] 96 % of control | [5] 91 % of control

Cc1ccc2ccccc2c1N(CC(=O)O)S(=O)(=O)c1ccccc1
inactive: dose: 100.0 mg/kg/injection, schedule: Q04DX003 (ip), vehicle: saline sonified 93 % of control | dose: 200.0 mg/kg/injection, schedule: Q04DX003 (ip), vehicle: saline sonified 102 % of control | dose: 400.0 mg/kg/injection, schedule: Q04DX003 (ip), vehicle: saline sonified 101 % of control

c1ccc(-c2cnc(-c3ccccc3)cn2)cc1
inactive: dose: 25.6 mg/kg/injection, schedule: Q04DX002 (ip), vehicle: saline with Tween-80 112 % of control | dose: 64.0 mg/kg/injection, schedule: Q04DX002 (ip), vehicle: saline with Tween-80 96 % of control | dose: 160.0 mg/kg/injection, schedule: Q04DX002 (ip), vehicle: saline with Tween-80 93 % of control | dose: 400.0 mg/kg/injection, schedule: Q04DX002 (ip), vehicle: saline with Tween-80 104 % of control

CC(C)CCCC(C)C1CCC2C3CCC4CC(N5CCCC5)=CCC4(C)C3CCC12C (centres undefined)
inactive: dose: 75.0 mg/kg/injection, schedule: Q04DX003 (sc), vehicle: steriod suspending solution 96 % of control | dose: 150.0 mg/kg/injection, schedule: Q04DX003 (sc), vehicle: steriod suspending solution 96 % of control | dose: 300.0 mg/kg/injection, schedule: Q04DX003 (sc), vehicle: steriod suspending solution 102 % of control

C1=NN=C2C=C3CCc4ccccc4C3CC12 (centres undefined)
inactive: dose: 100.0 mg/kg/injection, schedule: Q01DX001 (ip), vehicle: acetone 93 % of control | dose: 200.0 mg/kg/injection, schedule: Q01DX001 (ip), vehicle: acetone 96 % of control

CCOC(=O)N1c2ccc(Cl)cc2C=CC1C#N (centres undefined)
inactive: dose: 100.0 mg/kg/injection, schedule: Q01DX009 (ip), vehicle: gum acacia 91 % of control | dose: 100.0 mg/kg/injection, schedule: Q04DX003 (ip), vehicle: gum acacia 103 % of control | dose: 200.0 mg/kg/injection, schedule: Q01DX009 (ip), vehicle: gum acacia 91 % of control | dose: 200.0 mg/kg/injection, schedule: Q04DX003 (ip), vehicle: gum acacia 97 % of control | dose: 400.0 mg/kg/injection, schedule: Q04DX003 (ip), vehicle: gum acacia 92 % of control

[Se]c1ncnc2nc[nH]c12
inactive: [13] 103 % of control | dose: 50.0 mg/kg/injection, schedule: Q01DX001 (ip), vehicle: carboxymethylcellulose (CMC) 93 % of control | [1] 121 % of control

CC(C)(C)OC(=O)NC(CCCCNC(=O)C(F)(F)F)C(=O)ON1C(=O)CCC1=O (centres undefined)
inactive: dose: 25.0 mg/kg/injection, schedule: Q01DX009 (ip), vehicle: saline with Tween-80 93 % of control | dose: 50.0 mg/kg/injection, schedule: Q01DX009 (ip), vehicle: saline with Tween-80 95 % of control | dose: 100.0 mg/kg/injection, schedule: Q01DX009 (ip), vehicle: saline with Tween-80 90 % of control

CC1=CC(=O)OC(C)(C)O1
inactive: [10] 103 % of control | [9] 100 % of control | [11] 101 % of control | [14] 91 % of control | [12] 110 % of control | [15] 98 % of control

O=C(/C(=C\c1ccc(Cl)c(Cl)c1)c1ccccc1)c1ccc(O)cc1
inactive: [1] 90 % of control | [3] 101 % of control | [5] 95 % of control

CC(=O)Nc1cc([N+](=O)[O-])ccc1CC(O)c1ccccc1 (centres undefined)
inactive: dose: 100.0 mg/kg/injection, schedule: Q01DX009 (ip), vehicle: Klucel (hydroxypropylcellulose) (HPC) 109 % of control | dose: 100.0 mg/kg/injection, schedule: Q04DX003 (ip), vehicle: Klucel (hydroxypropylcellulose) (HPC) 97 % of control | dose: 200.0 mg/kg/injection, schedule: Q01DX009 (ip), vehicle: Klucel (hydroxypropylcellulose) (HPC) 111 % of control | dose: 200.0 mg/kg/injection, schedule: Q04DX003 (ip), vehicle: Klucel (hydroxypropylcellulose) (HPC) 97 % of control | dose: 400.0 mg/kg/injection, schedule: Q01DX009 (ip), vehicle: Klucel (hydroxypropylcellulose) (HPC) 94 % of control | dose: 400.0 mg/kg/injection, schedule: Q04DX003 (ip), vehicle: Klucel (hydroxypropylcellulose) (HPC) 100 % of control

CNC(=O)NC
inactive: [9] 94 % of control | [14] 102 % of control | [15] 94 % of control

CCCCOC(=N)Cc1cc(OC)c(OC)c(OC)c1
inactive: dose: 75.0 mg/kg/injection, schedule: Q04DX003 (ip), vehicle: saline with Tween-80 98 % of control | dose: 150.0 mg/kg/injection, schedule: Q04DX003 (ip), vehicle: saline with Tween-80 92 % of control | dose: 300.0 mg/kg/injection, schedule: Q04DX003 (ip), vehicle: saline with Tween-80 98 % of control

COC1OCC(O)C(N)C1O (centres undefined)
inactive: dose: 100.0 mg/kg/injection, schedule: Q01DX001 (ip), vehicle: saline 102 % of control and 95 % of control | dose: 200.0 mg/kg/injection, schedule: Q01DX001 (ip), vehicle: saline 102 % of control and 104 % of control and 106 % of control | dose: 400.0 mg/kg/injection, schedule: Q01DX001 (ip), vehicle: saline 87 % of control and 98 % of control and 92 % of control

CC[Si](C)(C)N1CC1
inactive: dose: 12.5 mg/kg/injection, schedule: Q01DX001 (ip), vehicle: carboxymethylcellulose (CMC) 106 % of control | [13] 101 % of control | dose: 50.0 mg/kg/injection, schedule: Q04DX003 (ip), vehicle: carboxymethylcellulose (CMC) 94 % of control | [2] 101 % of control | [4] 101 % of control
